Columns and labels:
Assay in all cases: relative viability (nuclei count vs DMSO), 5 days (fraction); higher = more cells survive
[1] = compound: CC1=CC=C(C=C1)C(=O)CN2C3=C(CCCC3)SC2=N [Pifithrin_alpha] + CC(=O)c1c(C)c2cnc(Nc3ccc(N4CCNCC4)cn3)nc2n(C2CCCC2)c1=O [Palbociclib] (partner 0.5 µM)
Outline: (§1)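 Five library-drug doses in √10 steps were combined with a fixed anchor-drug dose, or a single drug was given alone, by pin tool to lung cancer cell lines in 1536-well plates the day after seeding. Nuclei were stained and counted after 5 days. Relative viability is the nuclei count in treated wells over that in vehicle wells, taken as the median of duplicate plates.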

[2] = compound: CC1=CC=C(C=C1)C(=O)CN2C3=C(CCCC3)SC2=N [Pifithrin_alpha] + CS(=O)(=O)N1CCN(Cc2cc3nc(-c4cccc5[nH]ncc45)nc(N4CCOCC4)c3s2)CC1 [Pictilisib] (partner 1 µM)
Outline: as §1

[3] = compound: CNC(=O)c1ccccc1Sc1ccc2c(/C=C/c3ccccn3)n[nH]c2c1 [Axitinib] + CS(=O)(=O)CCNCc1ccc(-c2ccc3ncnc(Nc4ccc(OCc5cccc(F)c5)c(Cl)c4)c3c2)o1 [Lapatinib] (partner 2 µM)
Outline: as §1

[4] = compound: CNC(=O)c1ccccc1Sc1ccc2c(/C=C/c3ccccn3)n[nH]c2c1 [Axitinib] + O=C(c1cc(Cc2n[nH]c(=O)c3ccccc23)ccc1F)N1CCN(C(=O)C2CC2)CC1 [Olaparib] (partner 8 µM)
Outline: as §1

| Cell Line | relative viability ([1]; first compound 1 µM) | relative viability ([1]; first compound 3.162 µM) | relative viability ([1]; first compound 10 µM) | relative viability ([1]; first compound 31.62 µM) | relative viability ([1]; first compound 100 µM) | relative viability ([2]; first compound 1 µM) | relative viability ([2]; first compound 3.162 µM) | relative viability ([2]; first compound 10 µM) | relative viability ([2]; first compound 31.62 µM) | relative viability ([2]; first compound 100 µM) | relative viability ([3]; first compound 0.005 µM) | relative viability ([3]; first compound 0.01581 µM) | relative viability ([3]; first compound 0.05 µM) | relative viability ([3]; first compound 0.1581 µM) | relative viability ([3]; first compound 0.5 µM) | relative viability ([4]; first compound 0.005 µM) | relative viability ([4]; first compound 0.01581 µM) | relative viability ([4]; first compound 0.05 µM) | relative viability ([4]; first compound 0.1581 µM) | relative viability ([4]; first compound 0.5 µM) |
| --- | --- | --- | --- | --- | --- | --- | --- | --- | --- | --- | --- | --- | --- | --- | --- | --- | --- | --- | --- | --- |
| NCI-H2023 | 0.388 | 0.327 | 0.365 | 0.227 | 0.184 | 0.171 | 0.193 | 0.151 | 0.142 | 0.168 | 0.752 | 0.924 | 1.03 | 0.775 | 0.759 | 0.528 | 0.487 | 0.495 | 0.555 | 0.574 |
| NCI-H1650 | 0.285 | 0.321 | 0.389 | 0.307 | 0.282 | 0.286 | 0.44 | 0.53 | 0.353 | 0.468 | 0.928 | 0.532 | 0.884 | 0.715 | 0.818 | 0.876 | 0.712 | 0.797 | 0.91 | 0.89 |
| RERF-LC-KJ | 0.91 | 0.974 | 0.886 | 0.66 | 0.635 | 0.535 | 0.397 | 0.503 | 0.451 | 0.432 | 0.865 | 0.829 | 0.824 | 0.809 | 0.932 | 1.1 | 0.853 | 0.964 | 0.81 | 0.951 |
| NCI-H1734 | 0.38 | 0.362 | 0.33 | 0.313 | 0.355 | 0.494 | 0.491 | 0.481 | 0.381 | 0.434 | 1.03 | 1.07 | 1.15 | 1.02 | 0.954 | 0.593 | 0.571 | 0.62 | 0.585 | 0.747 |
| NCI-H2087 | 0.219 | 0.198 | 0.245 | 0.195 | 0.207 | 0.74 | 0.872 | 0.894 | 0.453 | 0.757 | 1 | 1.26 | 0.947 | 0.864 | 1.2 | 0.741 | 0.503 | 0.642 | 0.549 | 0.661 |
| EKVX | 0.387 | 0.33 | 0.321 | 0.257 | 0.276 | 0.328 | 0.283 | 0.281 | 0.235 | 0.214 | 0.178 | 0.226 | 0.222 | 0.216 | 0.183 | 0.979 | 0.826 | 0.902 | 0.883 | 1.03 |
| NCI-H1915 | 0.532 | 0.517 | 0.522 | – | 0.452 | 0.763 | 0.902 | 0.775 | – | 0.838 | 0.994 | 0.99 | 0.994 | 0.922 | 1 | 0.28 | 0.255 | 0.243 | 0.234 | 0.284 |
| NCI-H3122 | 0.175 | 0.211 | 0.193 | 0.146 | 0.195 | 0.628 | 0.596 | 0.577 | 0.563 | 0.732 | 1.03 | 0.977 | 1.04 | 1.04 | 1.13 | 0.571 | 0.629 | 0.59 | 0.598 | 0.652 |
| BEN | 0.487 | 0.488 | 0.456 | 0.444 | 0.472 | 0.445 | 0.576 | 0.64 | 0.618 | 0.543 | 0.695 | 0.648 | 0.592 | 0.563 | 0.497 | 1.17 | 1.42 | 0.903 | 1.02 | 1.07 |
| 201T | 0.349 | 0.319 | 0.344 | 0.286 | 0.376 | 0.603 | 0.525 | 0.52 | 0.53 | 0.551 | 1.01 | 1.03 | 1.07 | 1.05 | 0.966 | 0.861 | 0.805 | 0.795 | 0.859 | 0.875 |
| NCI-H1792 | – | 0.589 | 0.637 | 0.535 | 0.669 | 0.156 | 0.244 | 0.205 | 0.178 | 0.217 | 0.921 | 0.834 | 1.01 | 0.876 | 0.653 | 0.458 | 0.445 | 0.576 | 0.485 | 0.651 |
| NCI-H1666 | 0.642 | 0.68 | 0.591 | 0.612 | 0.646 | 0.351 | 0.296 | 0.277 | 0.238 | 0.293 | 0.767 | 0.741 | 0.608 | 0.62 | 0.946 | 0.741 | 0.756 | 0.7 | 0.765 | 0.728 |
| NCI-H1993 | 0.585 | 0.542 | 0.506 | 0.54 | 0.46 | – | 0.747 | 0.8 | 0.673 | 0.846 | 0.952 | 0.971 | 0.841 | 0.735 | 0.731 | 1 | 1.12 | 1.04 | 1.01 | 1.04 |
| CAL-12T | 0.364 | 0.308 | 0.436 | – | 0.238 | 0.415 | 0.385 | 0.348 | 0.347 | 0.331 | 0.712 | 0.693 | 0.609 | 0.645 | 0.624 | 0.736 | 0.716 | 0.736 | 0.698 | 0.701 |
| NCI-H460 | 0.102 | 0.102 | 0.12 | 0.0866 | 0.0814 | 0.317 | 0.353 | 0.31 | – | 0.371 | 1.15 | 0.999 | 0.809 | 0.953 | 1.35 | 0.411 | 0.402 | 0.514 | 0.379 | 0.498 |
| NCI-H2170 | 0.369 | 0.396 | 0.35 | 0.312 | 0.452 | 0.271 | 0.302 | 0.274 | 0.278 | 0.33 | 0.269 | 0.257 | 0.277 | 0.256 | 0.257 | 0.693 | 0.616 | 0.569 | 0.595 | 0.671 |
| LC-2-ad | 0.514 | 0.503 | 0.51 | 0.375 | 0.432 | 0.414 | 0.382 | 0.489 | 0.304 | 0.18 | 0.935 | 0.99 | 1.06 | 0.985 | 1.03 | 0.735 | 0.693 | 0.738 | 0.708 | 0.76 |
| HCC-78 | 0.449 | 0.412 | 0.454 | 0.409 | 0.488 | 0.134 | 0.218 | 0.174 | – | 0.196 | 0.865 | 0.724 | 0.642 | 0.701 | 0.47 | 0.925 | 0.814 | 0.674 | 0.776 | 0.813 |
| NCI-H322M | 0.381 | 0.56 | 0.501 | 0.474 | 0.525 | 0.54 | 0.45 | 0.503 | 0.44 | 0.428 | 0.658 | 0.603 | 0.591 | 0.566 | 0.652 | 0.965 | 0.849 | 0.753 | 0.724 | 1.06 |
| NCI-H1651 | 0.534 | 0.513 | 0.513 | 0.569 | 0.514 | 0.687 | 0.541 | 0.66 | 0.365 | 0.528 | 0.89 | 0.706 | 0.929 | 0.713 | 0.942 | 0.194 | 0.19 | 0.198 | 0.175 | 0.206 |
| NCI-H1437 | 0.325 | 0.326 | 0.218 | 0.217 | 0.172 | 0.371 | 0.406 | 0.44 | 0.249 | 0.222 | 0.851 | 0.743 | 0.91 | 0.733 | 0.926 | 0.677 | 0.623 | 0.62 | 0.611 | 0.629 |
| NCI-H1355 | 0.376 | 0.283 | 0.301 | 0.249 | 0.257 | 0.195 | 0.363 | 0.311 | 0.257 | 0.337 | 0.976 | 1.08 | 0.994 | 1 | 0.893 | 0.756 | 0.769 | 0.729 | 0.723 | 0.77 |
| NCI-H1755 | 0.433 | 0.437 | 0.441 | 0.424 | 0.443 | 0.296 | 0.451 | 0.395 | 0.307 | 0.39 | 1.06 | 0.998 | 1.06 | 1.04 | 0.99 | 0.897 | 0.867 | 0.852 | 0.847 | 0.852 |
| SK-LU-1 | 0.349 | 0.412 | 0.405 | 0.308 | 0.413 | 0.523 | 0.526 | 0.615 | 0.451 | 0.45 | 0.976 | 0.951 | 0.942 | 0.835 | 1.39 | 0.454 | 0.476 | 0.525 | 0.448 | 0.477 |
| NCI-H2126 | 0.333 | 0.381 | 0.356 | 0.302 | 0.373 | 0.341 | 0.482 | 0.405 | 0.427 | 0.376 | 0.765 | 0.745 | 0.771 | 0.71 | 0.729 | 0.913 | 0.907 | 0.884 | 0.917 | 0.944 |
| NCI-H1793 | 0.278 | 0.3 | 0.319 | 0.348 | 0.206 | 0.251 | 0.388 | 0.436 | 0.341 | 0.323 | 0.768 | 0.609 | 1.17 | 0.571 | 0.526 | 1 | 0.715 | 0.874 | 0.793 | 1.05 |
| HOP-62 | 0.45 | 0.483 | 0.396 | 0.335 | 0.52 | 0.376 | 0.822 | 0.875 | 0.342 | 0.804 | 0.891 | 0.883 | 1.01 | 0.863 | 1.06 | 0.392 | 0.443 | 0.321 | 0.569 | 0.682 |
